# Experiments:
# [1] = log of formation constant of complex with copper; cited from earlier work
# [2] = Log P, n-octanol/water partition coefficient; format: physicochemical
# Excerpt: The term log P is the n-octanol/water partition coefficients of the material.
# The copper to be removed is inside the hair and the chelant needs to penetrate inside hair and form a strong copper-chelant complex. This copper-chelant complex needs to be water soluble and thus easily removed during the rinsing process. […] These are log P, the octanol/water partitioning coefficient, and the molecular weight of the chelant. Both are related to the ability of the chelant to penetrate into hair and also form a water soluble copper-chelant complex
# [3] = Copper content of colored hair switches after repeated shampoo wash cycles (ICP-OES); conditions: clarifying shampoo containing the chelant, 20 cycles, copper content of hair compared to same treatment with shampoo without chelant
# Protocol: The copper removing performance of the shampoo composition is determined by treating hair with clarifying shampoo containing the corresponding chelant for 20 cycles and comparing the copper content of the hair compared to the same treatment using shampoo without the chelant.
# All testing are performed on colored hair switches (see Method of Measurement of Copper on Hair below) weighing approximately 4.0 grams and having a length of approximately 6 inches. The hair switches are commercially available from IHIP (International Hair Importers). Three hair switches per shampoo composition are used. An amount of […] of shampoo is spread via a syringe onto separate hair switch. That is, the dosage is 0.10 g of shampoo per g of hair. Each application consists of adding shampoo to the hair, milking for 30 seconds followed by rinsing for 30 seconds. Shampoo is then reapplied (0.1 g/g), milked for 30 seconds and rinsed for 30 seconds. Excess water is squeezed from the hair switches and left to air dry or treated with a rinse-off conditioner and/or a leave-on treatment composition. This protocol is repeated for a number of times/cycles (as indicated in the tables below, which describe the details of hair treatments).
# The following test method is used to assess the ability of the compositions and regimens to remove copper from the hair and to inhibit copper deposition onto the hair.
# Hair switches are colored once with an oxidative hair colorant. An extra blonde shade is used for the testing. The hair switches are washed for 10 or 20 repeat wash cycles in tap water containing 7 grains per gallon water hardness (Ca/Mg) and 0.06 μg/g copper ions. Each wash cycle consists of two applications of 0.1 g/g a shampoo to the hair switches. Each application consists of adding shampoo to the hair, milking for 30 secs followed by rinsing for 30 secs. Shampoo is then reapplied 0.1 g/g, milked for 30 secs, rinsed for 30 secs and then dried in a heat box (60° C.) until dry.
# Samples of 100 mg of hair are digested overnight with 2 ml of high purity concentrated nitric acid. The digestive mixture also contains 150 μL of 100 μg/g Yttrium internal standard (Inorganic Ventures, Christianburg, Va., USA). Following digestion, samples are heated to 70-80° C. for one hour, cooled to room temperature and diluted to 15 mL with deionized water. Copper content of the hair switches is determined by inductively coupled plasma atomic spectroscopy (ICP-OES)). For each leg, 3 different samples are analyzed.
# In order to minimize the variability of the resulting copper content on hair that is related to (a) lot-to-lot viariability due to hair switches and (b) day-to-day variability of the water used during shampoo and conditioner treatments, a single lot of hair switches is used for each experimental series and a separate control experiment/treatment is run for each experimental series (see below).
SMILES,logP [2],Log KML Cu [1],Copper Removing Performance from Shampoo [3] [%]
"O=C(O)c1cccc(C(=O)O)n1 [Dipicolinic Acid, dipicolinic acid]",0.8,9.1,40
"CCCCc1ccc(C(=O)O)nc1 [Fusaric Acid, fusaric acid]",2.6,–,–
"O=C(O)c1ccccn1 [Picolinic Acid, picolinic acid]",0.7,7.9,50
"O=C(O)c1ccc2ccccc2n1 [Quinaldic Acid, quinaldic acid]",2.1,5.9,35

# Now from value to molecule, other results behind:
logP [2],SMILES,Log KML Cu [1],Copper Removing Performance from Shampoo [3] [%]
0,"Nc1cc(C(=O)O)nc(C(=O)O)c1 [4-Aminopyridine-2,6-dicarboxylic acid, 4-aminopyridine-2,6-dicarboxylic acid]",11.4,–
1,"Cc1cccc(C(=O)O)n1 [6-Methyl Picolinic Acid, 6-methylpyridine-2-carboxylic acid]",7.1,35
0.6,"O=C(O)c1cc(O)cc(C(=O)O)n1 [Chelidamic Acid, chelidamic acid]",12.2,35
0.4,"O=C(O)c1cccnc1C(=O)O [Quinolinic Acid, quinolinic acid]",–,50

# From patent US11246816B2, “Shampoo compositions comprising a chelant” (The Procter & Gamble Company, priority 2016, dated 2022)
